From patent US8575158B2, “1-phenyl-substituted heterocyclyl derivatives and their use as prostaglandin D2 receptor modulators” (Actelion Pharmaceuticals Ltd., priority 2010, dated 2013)

Molecular target: T1, hCRTH2 receptor (Homo sapiens, UniProt Q9Y5Y4)
T1 construct: expressed in transfected cells; host or cells: HEK293
T1 sequence (Q9Y5Y4 1-395): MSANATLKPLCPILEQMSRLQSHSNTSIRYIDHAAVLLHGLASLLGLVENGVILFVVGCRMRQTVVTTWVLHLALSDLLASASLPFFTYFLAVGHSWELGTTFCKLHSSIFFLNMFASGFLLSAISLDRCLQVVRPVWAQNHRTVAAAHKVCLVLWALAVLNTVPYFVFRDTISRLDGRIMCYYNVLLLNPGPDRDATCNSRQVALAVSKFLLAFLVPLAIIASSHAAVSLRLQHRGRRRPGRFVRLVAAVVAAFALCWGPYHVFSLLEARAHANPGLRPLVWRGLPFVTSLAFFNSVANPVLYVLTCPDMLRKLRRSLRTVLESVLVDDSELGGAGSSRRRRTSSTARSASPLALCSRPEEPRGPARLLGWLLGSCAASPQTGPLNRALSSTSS
Assay: Radioligand displacement assay (3H-PGD2) on hCRTH2 receptor membranes
Type: binding
Details: antagonistic activity, 3H-PGD2 radioligand displacement, HEK293-hCRTH2 membranes

Row | SMILES | IC50 [nM]
1 | O=C(O)COc1ccc(Cl)cc1[C@@H]1c2ccccc2CCN1C(=O)OCCc1cccc(F)c1 [Example 286, (S)-1-(2-Carboxymethoxy-5-chloro-phenyl)-3,4-dihydro-1H-isoquinoline-2-carboxylic acid 2-(3-fluoro-phenyl)-ethyl ester] | 2.67
2 | Cn1nccc1COC(=O)N1CCc2ccccc2[C@H]1c1cc(Cl)ccc1OCC(=O)O [Example 287, (S)-1-(2-Carboxymethoxy-5-chloro-phenyl)-3,4-dihydro-1H-isoquinoline-2-carboxylic acid 2-methyl-2H-pyrazol-3-ylmethyl ester] | 0.2
3 | CCn1nc(C)cc1CCOC(=O)N1CCc2ccccc2[C@H]1c1cc(Cl)ccc1OCC(=O)O [Example 289, (S)-1-(2-Carboxymethoxy-5-chloro-phenyl)-3,4-dihydro-1H-isoquinoline-2-carboxylic acid 2-(2-ethyl-5-methyl-2H-pyrazol-3-yl)-ethyl ester] | 2.94
4 | Cc1cc(C)n(CCOC(=O)N2CCc3ccccc3[C@H]2c2cc(Cl)ccc2OCC(=O)O)n1 [Example 291, (S)-1-(2-Carboxymethoxy-5-chloro-phenyl)-3,4-dihydro-1H-isoquinoline-2-carboxylic acid 2-(3,5-dimethyl-pyrazol-1-yl)-ethyl ester] | 8.92
5 | Cc1cnn(COC(=O)N2CCc3ccccc3[C@H]2c2cc(Cl)ccc2OCC(=O)O)c1 [Example 292, (S)-1-(2-Carboxymethoxy-5-chloro-phenyl)-3,4-dihydro-1H-isoquinoline-2-carboxylic acid 4-methyl-pyrazol-1-ylmethyl ester] | 2.08
6 | Cc1nc2ccccc2n1CCOC(=O)N1CCc2ccccc2[C@H]1c1cc(Cl)ccc1OCC(=O)O [Example 293] | 98.1
7 | O=C(O)COc1ccc(Cl)cc1[C@@H]1c2ccccc2CCN1C(=O)OCc1nc2ccccc2s1 [Example 294, (S)-1-(2-Carboxymethoxy-5-chloro-phenyl)-3,4-dihydro-1H-isoquinoline-2-carboxylic acid benzothiazol-2-ylmethyl ester] | 1.94
8 | Cn1nc(COC(=O)N2CCc3ccccc3[C@H]2c2cc(Cl)ccc2OCC(=O)O)c2ccccc21 [Example 296, (S)-1-(2-Carboxymethoxy-5-chloro-phenyl)-3,4-dihydro-1H-isoquinoline-2-carboxylic acid 1-methyl-1H-indazol-3-ylmethyl ester] | 1.72
9 | O=C(O)COc1ccc(Cl)cc1[C@@H]1c2ccccc2CCN1C(=O)OCn1ncc2ccccc21 [Example 297, (S)-1-(2-Carboxymethoxy-5-chloro-phenyl)-3,4-dihydro-1H-isoquinoline-2-carboxylic acid indazol-1-ylmethyl ester] | 1.06
10 | O=C(O)COc1ccc(Cl)cc1[C@@H]1c2ccccc2CCN1C(=O)OCc1noc2ccccc12 [Example 298, (S)-1-(2-Carboxymethoxy-5-chloro-phenyl)-3,4-dihydro-1H-isoquinoline-2-carboxylic acid benzo[d]isoxazol-3-ylmethyl ester] | 2.49
11 | Cc1cnc(COC(=O)N2CCc3c(ccc(F)c3F)[C@H]2c2cc(Cl)ccc2OCC(=O)O)s1 [Example 301, (S)-1-(2-Carboxymethoxy-5-chloro-phenyl)-5,6-difluoro-3,4-dihydro-1H-isoquinoline-2-carboxylic acid 5-methyl-thiazol-2-ylmethyl ester] | 4.55
12 | Cc1csc(COC(=O)N2CCc3c(ccc(F)c3F)[C@H]2c2cc(Cl)ccc2OCC(=O)O)n1 [Example 302, (S)-1-(2-Carboxymethoxy-5-chloro-phenyl)-5,6-difluoro-3,4-dihydro-1H-isoquinoline-2-carboxylic acid 4-methyl-thiazol-2-ylmethyl ester] | 5.7
13 | Cc1cc(COC(=O)N2CCc3c(ccc(F)c3F)[C@H]2c2cc(Cl)ccc2OCC(=O)O)on1 [Example 305, (S)-1-(2-Carboxymethoxy-5-chloro-phenyl)-5,6-difluoro-3,4-dihydro-1H-isoquinoline-2-carboxylic acid 3-methyl-isoxazol-5-ylmethyl ester] | 2.13
14 | Cc1conc1COC(=O)N1CCc2c(ccc(F)c2F)[C@H]1c1cc(Cl)ccc1OCC(=O)O [Example 306, (S)-1-(2-Carboxymethoxy-5-chloro-phenyl)-5,6-difluoro-3,4-dihydro-1H-isoquinoline-2-carboxylic acid 4-methyl-isoxazol-3-ylmethyl ester] | 3.12
15 | Cc1noc(C)c1COC(=O)N1CCc2c(ccc(F)c2F)[C@H]1c1cc(Cl)ccc1OCC(=O)O [Example 307, (S)-1-(2-Carboxymethoxy-5-chloro-phenyl)-5,6-difluoro-3,4-dihydro-1H-isoquinoline-2-carboxylic acid 3,5-dimethyl-isoxazol-4-ylmethyl ester] | 3.34
16 | O=C(O)COc1ccc(Cl)cc1[C@@H]1c2ccc(F)c(F)c2CCN1C(=O)OCc1cnccn1 [Example 308, (S)-1-(2-Carboxymethoxy-5-chloro-phenyl)-5,6-difluoro-3,4-dihydro-1H-isoquinoline-2-carboxylic acid pyrazin-2-ylmethyl ester] | 1.69
17 | O=C(O)COc1ccc(Cl)cc1[C@@H]1c2ccc(F)c(F)c2CCN1C(=O)OCc1ccncn1 [Example 309, (S)-1-(2-Carboxymethoxy-5-chloro-phenyl)-5,6-difluoro-3,4-dihydro-1H-isoquinoline-2-carboxylic acid pyrimidin-4-ylmethyl ester] | 4.77
18 | O=C(O)COc1ccc(Cl)cc1[C@@H]1c2ccc(F)c(F)c2CCN1C(=O)OCCc1cccc(F)c1 [Example 311, (S)-1-(2-Carboxymethoxy-5-chloro-phenyl)-5,6-difluoro-3,4-dihydro-1H-isoquinoline-2-carboxylic acid 2-(3-fluoro-phenyl)-ethyl ester] | 11
19 | Cn1nccc1COC(=O)N1CCc2c(ccc(F)c2F)[C@H]1c1cc(Cl)ccc1OCC(=O)O [Example 312, (S)-1-(2-Carboxymethoxy-5-chloro-phenyl)-5,6-difluoro-3,4-dihydro-1H-isoquinoline-2-carboxylic acid 2-methyl-2H-pyrazol-3-ylmethyl ester] | 4.65
20 | Cc1cc(COC(=O)N2CCc3c(ccc(F)c3F)[C@H]2c2cc(Cl)ccc2OCC(=O)O)n(C)n1 [Example 313, (S)-1-(2-Carboxymethoxy-5-chloro-phenyl)-5,6-difluoro-3,4-dihydro-1H-isoquinoline-2-carboxylic acid 2,5-dimethyl-2H-pyrazol-3-ylmethyl ester] | 2.37

Next, values leading:

Row | IC50 [nM] | SMILES
21 | 0.86 | O=C(O)COc1ccc(Cl)cc1[C@@H]1c2ccccc2CCN1C(=O)OCc1cncnc1 [Example 284, (S)-1-(2-Carboxymethoxy-5-chloro-phenyl)-3,4-dihydro-1H-isoquinoline-2-carboxylic acid pyrimidin-5-ylmethyl ester]
22 | 3.17 | O=C(O)COc1ccc(Cl)cc1[C@@H]1c2ccccc2CCN1C(=O)OCCc1ccccc1 [Example 285, (S)-1-(2-Carboxymethoxy-5-chloro-phenyl)-3,4-dihydro-1H-isoquinoline-2-carboxylic acid phenethyl ester]
23 | 0.41 | Cc1cc(COC(=O)N2CCc3ccccc3[C@H]2c2cc(Cl)ccc2OCC(=O)O)n(C)n1 [Example 288, (S)-1-(2-Carboxymethoxy-5-chloro-phenyl)-3,4-dihydro-1H-isoquinoline-2-carboxylic acid 2,5-dimethyl-2H-pyrazol-3-ylmethyl ester]
24 | 0.48 | Cn1cncc1COC(=O)N1CCc2ccccc2[C@H]1c1cc(Cl)ccc1OCC(=O)O [Example 290, (S)-1-(2-Carboxymethoxy-5-chloro-phenyl)-3,4-dihydro-1H-isoquinoline-2-carboxylic acid 3-methyl-3H-imidazol-4-ylmethyl ester]
25 | 7.41 | O=C(O)COc1ccc(Cl)cc1[C@@H]1c2ccccc2CCN1C(=O)OCc1nc2ccccc2o1 [Example 295, (S)-1-(2-Carboxymethoxy-5-chloro-phenyl)-3,4-dihydro-1H-isoquinoline-2-carboxylic acid benzooxazol-2-ylmethyl ester]
26 | 6.83 | O=C(O)COc1ccc(Cl)cc1[C@@H]1c2ccc(F)c(F)c2CCN1C(=O)OCc1nccs1 [Example 299, (S)-1-(2-Carboxymethoxy-5-chloro-phenyl)-5,6-difluoro-3,4-dihydro-1H-isoquinoline-2-carboxylic acid thiazol-2-ylmethyl ester]
27 | 6.39 | Cc1ncsc1CCOC(=O)N1CCc2c(ccc(F)c2F)[C@H]1c1cc(Cl)ccc1OCC(=O)O [Example 300, (S)-1-(2-Carboxymethoxy-5-chloro-phenyl)-5,6-difluoro-3,4-dihydro-1H-isoquinoline-2-carboxylic acid 2-(4-methyl-thiazol-5-yl)-ethyl ester]
28 | 5.05 | Cc1ncc(COC(=O)N2CCc3c(ccc(F)c3F)[C@H]2c2cc(Cl)ccc2OCC(=O)O)s1 [Example 303, (S)-1-(2-Carboxymethoxy-5-chloro-phenyl)-5,6-difluoro-3,4-dihydro-1H-isoquinoline-2-carboxylic acid 2-methyl-thiazol-5-ylmethyl ester]
29 | 5.39 | Cc1nc(COC(=O)N2CCc3c(ccc(F)c3F)[C@H]2c2cc(Cl)ccc2OCC(=O)O)cs1 [Example 304, (S)-1-(2-Carboxymethoxy-5-chloro-phenyl)-5,6-difluoro-3,4-dihydro-1H-isoquinoline-2-carboxylic acid 2-methyl-thiazol-4-ylmethyl ester]
30 | 5.14 | O=C(O)COc1ccc(Cl)cc1[C@@H]1c2ccc(F)c(F)c2CCN1C(=O)OCCc1ccccc1 [Example 310, (S)-1-(2-Carboxymethoxy-5-chloro-phenyl)-5,6-difluoro-3,4-dihydro-1H-isoquinoline-2-carboxylic acid phenethyl ester]
